Data reported in patent publication US20080214589A1, “Thrombin Inhibiting 2,4-Dioxo-3,4-Dihydropyrimidine Derivatives” (ASTRAZENECA AB, priority 2005, published 2008).

Molecular target: T1, Human a-thrombin (Homo sapiens, UniProt P00734)
T1 construct: Human a-thrombin, Sigma Chemical Co. or Hematologic Technologies; purchased Sigma Chemical Co. or Hematologic Technologies
Test: Test B: thrombin inhibition with a chromogenic, robotic assay
Type: biochemical
Settings: chromogenic substrate S-2366, 40 minutes incubation at 37° C.
Protocol: Determination of Thrombin Inhibition with a Chromogenic, Robotic Assay
The thrombin inhibitor potency is measured with a chromogenic substrate method, in a Plato 3300 robotic microplate processor (Rosys AG, CH-8634 Hombrechtikon, Switzerland), using 96-well, half volume microtitre plates (Costar, Cambridge, Mass., USA; Cat No 3690). Stock solutions of test substance in DMSO (72 μL), 0.1-1 mmol/L, are diluted serially 1:3 (24+48 μL) with DMSO to obtain ten different concentrations, which are analysed as samples in the assay. 2 μL of test sample is diluted with 124 μL assay buffer, 12 μL of chromogenic substrate solution (S-2366, Chromogenix, Mölndal, Sweden) in assay buffer and finally 12 μL of a-thrombin solution (Human a-thrombin, Sigma Chemical Co. or Hematologic Technologies) in assay buffer, are added, and the samples mixed. The final assay concentrations are: test substance 0.00068-133 μmol/L, S-2366 0.30 mmol/L, a-thrombin 0.020 NIHU/mL. The linear absorbance increment during 40 minutes incubation at 37° C. is used for calculation of percentage inhibition for the test samples, as compared to blanks without inhibitor. The IC50-robotic value, corresponding to the inhibitor concentration which causes 50% inhibition of the thrombin activity, is calculated from a log concentration vs. % inhibition curve.

| IC50 [nM] | Structure (SMILES) |
| --- | --- |
| 169 | Cc1cc(N)nc(C)c1CNC(=O)Cn1c(C)cc(=O)n(NCC(F)(F)c2ccccn2)c1=O [5(a), N-[(6-Amino-2,4-dimethylpyridin-3-yl)methyl]-2-[3-[(2,2-difluoro-2-pyridin-2-ylethyl)amino]-6-methyl-2,4-dioxo-3,4-dihydropyrimidin-1(2H)-yl]acetamide] |
| 32.7 | Cc1cc(=O)n(NCC(F)(F)c2ccccn2)c(=O)n1CC(=O)NCc1cc(Cl)ccc1CN [Example 2, N-[2-(Aminomethyl)-5-chlorobenzyl]-2-[3-[(2,2-difluoro-2-pyridin-2-ylethyl)-amino]-6-methyl-2,4-dioxo-3,4-dihydropyrimidin-1(2H)-yl]acetamide] |
